The target of one assay is T1, rat SCD-1 (Rattus norvegicus, UniProt P07308).
T1 construct: Rat liver microsomes (RLM, BiolVT); tissue BiolVT; host or cells: rat liver microsomes
T1 sequence (P07308 1-358): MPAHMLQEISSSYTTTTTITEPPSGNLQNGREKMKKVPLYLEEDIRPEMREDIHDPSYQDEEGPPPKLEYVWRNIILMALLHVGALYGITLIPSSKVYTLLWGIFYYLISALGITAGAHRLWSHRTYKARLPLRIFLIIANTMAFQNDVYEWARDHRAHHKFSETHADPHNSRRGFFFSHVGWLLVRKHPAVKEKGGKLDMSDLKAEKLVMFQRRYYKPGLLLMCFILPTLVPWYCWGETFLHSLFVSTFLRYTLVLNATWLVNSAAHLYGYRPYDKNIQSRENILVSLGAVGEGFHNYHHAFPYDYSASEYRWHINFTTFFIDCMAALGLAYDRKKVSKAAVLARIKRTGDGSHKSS
In words: Inhibition of SCD-1 activity in rat liver microsomes (13C-stearoyl-CoA to 13C-oleoyl-CoA, LC/MS/MS). It is filed as biochemical. Particulars: FIG. 1, IC50 value not given. How it is done: The ability of the compound to inhibit isolated SCD-1 enzyme activity can be evaluated in rat and human microsomes as described below (Oncotarget (2018), 9, 3-20). The compound is added as various concentrations to the liver microsomes and incubated for 5 minutes with ^13C-labelled Stearoyl CoA, which is the substrate for SCD-1. The activity of SCD-1 is then determined by the conversion of ^13C-Steoryl CoA to ^13C-Oleoyl CoA using an LC/MS/MS method. The ability of the compound to inhibit SCD-1 activity is expressed as an IC50.
Compound 25 is dissolved in DMSO to prepare a 10 mM stock solution.
Rat liver microsomes (RLM, BiolVT) and human liver microsome (HLM, InVitroCYP™ H-class, Pool of 25 donors BiolVT) solutions are prepared by adding the microsomes to 100 mM sodium phosphate, pH 7.4, at a protein concentration of 1.00 mg/mL.
Compound 25 stock solution is then added to the RLM and HLM solution at an initial concentration of 0.2 μM for direct inhibition. Each LM/Inhibitor Solution is added to blank LM solution to give 8 concentrations prepared by a 3-fold serial dilution. These diluted LM/inhibitor solutions are then added to a reaction buffer containing 2 mM NADH, 120 μM Coenzyme A, 2 mM ATP, 2 mM DTT, and 10 mM MgCl2 in 100 mM sodium phosphate, pH 7.4.
A Stearoyl-^13Cis-CoA solution in 10% methanol in water is prepared at a final concentration of 3.00 mM. […]

Assay [1] in a line: Body weight and body composition (EchoMRI) in GAN diet-induced, biopsy-confirmed mouse model of NASH. It is filed as in vivo, mice. The note with it: 12 weeks. Here is the method: The effects of topical treatment of Compound 25 to 10% of the skin for 12 weeks were assessed in a diet-induced and biopsy-confirmed mouse model of NASH described in the literature (World Journal of Gastroenterology (2019), 25(33), 4904-4920). In this model, NASH is induced by maintaining mice on a high fat-high fructose diet (the so-called GAN [Novel Gubra Amylin] diet) for 33 weeks prior to drug administration. […] This biopsy is then compared to a post-drug treatment biopsy to assess changes in NAFLD activity and Fibrosis Stage. Qualitative scoring is completed with quantitative immunohistochemistry to assess effects on hepatic steatosis, inflammation (Galectin-3), fibrosis (Collagen 1a1 and Picro-Sirius Red Staining) and stellate cell activation (α-SMA). RNASeq was also performed on terminal liver samples from mice treated with placebo gel and compound 25 gel to examine key candidate genes involved in extracellular matrix formation (ECM) and fibrogenesis. Parametric (ANOVA) and non-parametric (Fisher's or Chi Square) statistics were used to analyze the data as appropriate.
SCD-1 inhibitor compounds can be tested in vivo in a rodent diet-induced model of biopsy-confirmed NASH. In this experiment, the NASH phenotype is induced by maintaining mice upon a GAN diet for 33 weeks prior to drug administration (BMC Gastroenterology (2020), 20(1), 210; World Journal of Gastroenterology (2019), 25(33), 4904-4920). […] In addition to pre- and post-treatment histological analyses, metabolic assessments such as body weight, body composition, food intake and clinical chemistries are measured during and following the 12-week study dosing period. […]
Animals and Diet: The Danish Animal Experiments Inspectorate approved all experiments which were conducted using internationally accepted principles for the use of laboratory animals under the personal license #2013-15-2934-00784. […] Mice were weighed daily during the study and body composition was measured by non-invasive EchoMRI scanning using EchoMRI-900 (EchoMRI, Houston, TX).

Assay [2] deals with diet-induced and biopsy-confirmed mouse model of NASH. In words: Plasma ALT and AST in mouse model of NASH. It counts as in vivo, mice. The note with it: for plasma alanine transaminase (ALT) (units/L) / plasma aspartate transaminase (AST) (units/L): week 12. How it is done:
SCD-1 inhibitor compounds can be tested in vivo in a rodent diet-induced model of biopsy-confirmed NASH. In this experiment, the NASH phenotype is induced by maintaining mice upon a GAN diet for 33 weeks prior to drug administration (BMC Gastroenterology (2020), 20(1), 210; World Journal of Gastroenterology (2019), 25(33), 4904-4920). A biopsy is performed prior to drug treatment to eliminate any mice that have not developed the NASH phenotype and to mirror clinical trial design where liver biopsies prior to and at the end of treatment are compared. In addition to pre- and post-treatment histological analyses, metabolic assessments such as body weight, body composition, food intake and clinical chemistries are measured during and following the 12-week study dosing period.
Mice were dosed topically to 10% of the total BSA of the skin with either a placebo gel or a gel containing compound 25 (at a concentration of 0.05%, 0.25%, 0.75%, or 2.5%). (World Journal of Gastroenterology (2018), 24(2), 179-194).
Animals and Diet: The Danish Animal Experiments Inspectorate approved all experiments which were conducted using internationally accepted principles for the use of laboratory animals under the personal license #2013-15-2934-00784. B6.V-Lepob/JRj (ob/ob) mice (6 weeks old) were from Janvier Labs (Le Genest Saint Isle, France) and housed in a controlled environment (12h light/dark cycle, lights on at 3 AM, 21+2° C., humidity 50+10%). Each animal was identified by an implantable subcutaneous microchip (PetID Microchip, E-vet, Haderslev, Denmark). Mice had ad libitum access to tap water and the Gubra Amylin NASH diet [GAN diet; 40 kcal-% fat (of these 0% trans-fat and 46% saturated fatty acids by weight), 22% fructose, 10% sucrose, 2% cholesterol; D09100310, Research Diets]. Mice were maintained on the GAN diet for 33 weeks prior to study initiation to induce NASH and remained on the GAN diet during the 12 weeks of drug administration. Mice were weighed daily during the study and body composition was measured by non-invasive EchoMRI scanning using EchoMRI-900 (EchoMRI, Houston, TX).
Plasma Biochemistry Analysis: Blood samples are collected in heparinized tubes and plasma is separated and stored at −80° C. until analysis. Alanine aminotransferase and aspartate aminotransferase (FIG. 12) were measured using commercial kits (Roche Diagnostics) on the Cobas c 501 autoanalyzer according to the manufacturer's instructions.

Where [3] appears, read: 2.5% gel, topical to 10% of skin, p<0.001.

In the case of `O=C(COc1ccc(CO)cc1)N1CC[C@H](Oc2ccccc2C(F)(F)F)C1` [Compound 25, (S)-2-(4-(hydroxymethyl)phenoxy)-1-(3-(2-(trifluoromethyl)phenoxy)pyrrolidin-1-yl)ethan-1-one], the “inhibition of rat SCD-1 activity” value against rat SCD-1 is “concentration-dependent inhibition”. Moreover, in assay [1] (setting [3]), the “body adiposity (percent body weight)” value was “significantly reduced” and the “body weight (percent baseline body weight)” value was “significantly reduced”. The “total body weight or body fat” value in assay [1] (lower doses at which fibrosis changes were observed, topical) was “no or minimal effect”. Also, in assay [2] (0.75% gel), the “plasma alanine transaminase (ALT) (units/L)” value is “reduction” and the “plasma aspartate transaminase (AST) (units/L)” value is listed as “reduction”. Besides, in assay [2] (2.5% gel), the “plasma alanine transaminase (ALT) (units/L)” value is listed as “reduction” and the “plasma aspartate transaminase (AST) (units/L)” value is “reduction”. Besides, the “serum ALT and AST” value in assay [2] (conclusion, after topical dosing, dose not specified) is given as “marked decrease”.
